Reference: article PMC11871066, “Structure-based discovery of hydrocarbon-stapled paxillin peptides that block FAK scaffolding in cancer” (Nature Communications, 2025)
Read-outs that look alike come from different tables or passages of the source. Bridge positions count the residues as written; N and C are the ends. Square brackets hold non-standard residues; d marks the D form. Peptide text beside a SMILES is read from it. * marks the point of attachment. Myristoyl = CCCCCCCCCCCCCC(=O)*; R8 = C=CCCCCCC[C@@](C)(N)C(=O)O; S5 = C=CCCC[C@](C)(N)C(=O)O

What was measured:
[1] = tested on: Hep-G2 cells; assay: cells; type: cell-based, human; conditions: 96 h
Method: (§1) Cells were seeded at 1000 cells per well in white-walled, clear bottom 96-well plates and allowed to adhere in the incubator for 24 h. […] Treatment doses were created in a 12-or 10-point, twofold serial dilution, starting at 200 μM. After 24 h of treatment, 10% FBS was spiked back into each well and the plate returned to 37 °C […]. After 96 h of drug treatment, the Promega 2D CellTiter-Glo reagent was added to each well at a 1:2 ratio of reagent to treatment media. […] This assay was performed a minimum of 3 (n = 3) times for each cell line, with each run containing a minimum of 3 technical replicates per run. IC50 curves were generated using GraphPad Prism (version 10.3.1), reporting the mean % viability relative to DMSO ± SD.

[2] = tested on: LX-2 cells; assay: cells; type: cell-based, human; conditions: 96 h
Method: as §1

[3] = tested on: NHEM cells; assay: cells; type: cell-based, human; conditions: 96 h
Method: as §1

[4] = tested on: ONDA7 cells; assay: cells; type: cell-based, human; conditions: 96 h
Method: as §1

[5] = tested on: SK-MEL-147 cells; assay: cells; type: cell-based, human; conditions: 96 h
Method: as §1

[6] = tested on: WM88 cells; assay: cells; type: cell-based, human; conditions: 96 h
Method: as §1

[7] = tested on: SK-MEL-147 cells; assay: RealTime-Glo Annexin V apoptosis assay; type: cell-based, human; conditions: for induction of apoptosis, time-course: every 24 h over 96 h
Method: SK-MEL-147 cells were seeded at 1000 cells/well in 384-well white-walled, clear-bottom plates (Corning). Cells were allowed to adhere overnight. Serial twofold dilutions of drugs were prepared starting at 200 μM. Immediately after adding the drug treatments, 2X RealTime-Glo™ Annexin V Apoptosis detection reagent (Promega) was added. Replicates were also included for the following controls: “no-cell” (negative), vehicle-only controls (negative), and cisplatin (5 μM, positive). […] Dose-response curves and EC50 curves were obtained using GraphPad Prism (version 10.3.1), reporting mean luminescence relative to DMSO ± SD. A minimum of 5 independent biological runs (n = 5) were performed per treatment group. […]
manner via Annexin V apopt osi s ti me -course study. SK -MEL- 147 cells treated with ( a) 2012, (b) 2 0 20, and (c) defactinib are evaluated for apoptosis using RealTime- Glo system for Annexin V binding. EC50 curves representing data obtained every 24 hours, over the course of 96 hours total. EC50 cur ves f it us i ng GraphPad Prism reporting mean ± SD of (a) 7 biological replicates (n=7); (b) 5 biological replicates (n =5); and (c) 5 biological replicates (n =5). Source data are provided as Source Data files.

[8] = tested on: SK-MEL-147 cells; assay: Transwell invasion assay; type: cell-based, human
Method: SK-MEL-147 cells were seeded at 400,000 cells/well in six-well plates and allowed to adhere in the incubator overnight. Cells were pretreated with drugs ranging from 200–0.01 μM, and incubated for 48 h. Subsequently, 8.0 μm PET membrane cell culture inserts (Falcon) were coated with 40 μL of 0.3 mg/mL Matrigel (Corning) diluted in serum-free media and incubated at 37 °C/5% CO2 for 5 h to allow the solution to gel. Unbound Matrigel was removed from the inserts, and membranes were rehydrated with serum-containing media for an additional hour. Treated cells were then trypsinized, collected by centrifugation, washed with DPBS, and resuspended in serum-free media. About 50,000 cells per treatment group were seeded into upper chambers with additional serum-free media. 10% FBS-containing media was placed into bottom chambers as a chemoattractant. After 24 h, inserts were then stained with crystal violet (Sigma-Aldrich) and washed with DPBS. Using an ECHO Revolve microscope, bright field images of 6 fields of view for each insert were taken at 10x magnification. The number of invaded cells in each image was quantified using ImageJ (version 1.52a). Bar graphs, dose-response curves, and IC50 values were established using GraphPad Prism (version 10.3.1), reporting the mean number of invaded cells relative to DMSO ± SD.
Transwell invasion assay. Representative brightfield images of invaded SK -MEL- 147 cells on transwell inserts at 10X magnification following peptide treatment. Images show invaded cells after treatment with various concentrations of 2020 (top panel), 2012 (middle panel), and defactinib (bottom panel), in addition to DMSO vehicle-control (left, top panel) and ad- FRNK positive control (left, bottom panel). Bar graphs reveal m ean number of invaded cells ± SD and calculated IC50 values across all dos e s of 2020 (left graph, n=2), 2012 (middle graph, n=6), and defactinib (right graph, n=4 ). All values for ‘n’ represent independent biological replicates. One -way ANOVA analyses and Dunnet’s multiple comparison tests were performed

[9] = target: 97 kinases (kinase named in endpoint) (Homo sapiens, UniProt O14757); assay: Eurofins KINOMEscan profiling, 97 kinases; conditions: read-out: % Ctrl, CHEK1
[10] = target: 97 kinases (kinase named in endpoint) (Homo sapiens, UniProt O15111); assay: Eurofins KINOMEscan profiling, 97 kinases; conditions: read-out: % Ctrl, IKK-alpha
Sequence of 97 kinases (kinase named in endpoint) (Homo sapiens, UniProt O15111) (O15111 whole entry): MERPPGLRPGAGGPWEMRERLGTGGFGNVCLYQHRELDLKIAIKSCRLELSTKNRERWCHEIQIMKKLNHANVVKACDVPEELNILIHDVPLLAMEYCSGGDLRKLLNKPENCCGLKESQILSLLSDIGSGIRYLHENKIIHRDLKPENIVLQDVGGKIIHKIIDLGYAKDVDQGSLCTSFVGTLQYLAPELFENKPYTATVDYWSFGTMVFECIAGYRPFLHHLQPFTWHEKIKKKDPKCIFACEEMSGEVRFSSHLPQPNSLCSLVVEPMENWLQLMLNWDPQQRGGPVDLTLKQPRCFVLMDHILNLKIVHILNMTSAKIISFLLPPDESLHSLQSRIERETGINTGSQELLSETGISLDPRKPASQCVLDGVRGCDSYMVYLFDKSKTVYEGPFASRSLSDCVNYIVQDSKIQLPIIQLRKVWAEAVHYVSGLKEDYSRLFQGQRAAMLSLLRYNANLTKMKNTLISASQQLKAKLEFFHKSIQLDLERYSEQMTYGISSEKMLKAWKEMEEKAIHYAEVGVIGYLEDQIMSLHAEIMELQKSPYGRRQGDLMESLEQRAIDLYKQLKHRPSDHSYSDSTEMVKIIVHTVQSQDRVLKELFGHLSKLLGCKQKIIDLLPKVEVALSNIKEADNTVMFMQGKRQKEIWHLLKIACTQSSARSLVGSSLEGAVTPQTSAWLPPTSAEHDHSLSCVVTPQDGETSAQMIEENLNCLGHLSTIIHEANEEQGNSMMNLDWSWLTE

[11] = target: 97 kinases (kinase named in endpoint) (Homo sapiens, UniProt P00519, T315I); assay: Eurofins KINOMEscan profiling, 97 kinases; conditions: read-out: % Ctrl, ABL(T315I)-phosphorylated
[12] = target: 97 kinases (kinase named in endpoint) (Homo sapiens, UniProt P27361); assay: Eurofins KINOMEscan profiling, 97 kinases; conditions: read-out: % Ctrl, ERK1
[13] = target: 97 kinases (kinase named in endpoint) (Homo sapiens, UniProt P36888); assay: Eurofins KINOMEscan profiling, 97 kinases; conditions: read-out: % Ctrl, FLT3
Sequence of 97 kinases (kinase named in endpoint) (Homo sapiens, UniProt P36888) (P36888 27-993): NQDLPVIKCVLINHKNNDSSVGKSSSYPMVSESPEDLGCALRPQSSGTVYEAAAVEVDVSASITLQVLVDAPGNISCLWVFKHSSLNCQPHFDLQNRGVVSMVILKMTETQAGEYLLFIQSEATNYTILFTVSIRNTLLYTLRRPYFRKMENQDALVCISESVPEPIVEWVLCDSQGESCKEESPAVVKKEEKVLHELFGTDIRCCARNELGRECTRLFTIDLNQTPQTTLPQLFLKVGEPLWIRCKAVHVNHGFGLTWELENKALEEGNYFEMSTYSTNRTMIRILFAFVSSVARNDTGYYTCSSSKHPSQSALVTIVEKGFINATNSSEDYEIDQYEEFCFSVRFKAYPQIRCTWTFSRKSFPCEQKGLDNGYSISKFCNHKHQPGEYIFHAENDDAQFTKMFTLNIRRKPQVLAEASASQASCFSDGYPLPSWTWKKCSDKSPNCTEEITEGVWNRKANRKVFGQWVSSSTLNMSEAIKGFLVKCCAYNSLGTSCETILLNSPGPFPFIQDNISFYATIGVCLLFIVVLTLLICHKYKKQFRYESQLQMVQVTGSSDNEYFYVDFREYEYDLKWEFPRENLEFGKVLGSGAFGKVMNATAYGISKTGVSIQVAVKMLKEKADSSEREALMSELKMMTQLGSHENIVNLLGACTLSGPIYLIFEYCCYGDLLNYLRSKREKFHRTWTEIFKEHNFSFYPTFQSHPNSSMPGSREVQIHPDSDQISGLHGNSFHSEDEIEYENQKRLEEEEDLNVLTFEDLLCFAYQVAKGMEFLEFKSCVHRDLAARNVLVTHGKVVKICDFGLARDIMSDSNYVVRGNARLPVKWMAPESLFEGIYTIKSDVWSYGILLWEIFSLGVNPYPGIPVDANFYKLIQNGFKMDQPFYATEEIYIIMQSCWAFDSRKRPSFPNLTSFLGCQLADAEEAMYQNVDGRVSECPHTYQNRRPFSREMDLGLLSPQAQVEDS

[14] = target: 97 kinases (kinase named in endpoint) (Homo sapiens, UniProt P48736); assay: Eurofins KINOMEscan profiling, 97 kinases; conditions: read-out: % Ctrl, PIK3CG
Sequence of 97 kinases (kinase named in endpoint) (Homo sapiens, UniProt P48736) (P48736 whole entry): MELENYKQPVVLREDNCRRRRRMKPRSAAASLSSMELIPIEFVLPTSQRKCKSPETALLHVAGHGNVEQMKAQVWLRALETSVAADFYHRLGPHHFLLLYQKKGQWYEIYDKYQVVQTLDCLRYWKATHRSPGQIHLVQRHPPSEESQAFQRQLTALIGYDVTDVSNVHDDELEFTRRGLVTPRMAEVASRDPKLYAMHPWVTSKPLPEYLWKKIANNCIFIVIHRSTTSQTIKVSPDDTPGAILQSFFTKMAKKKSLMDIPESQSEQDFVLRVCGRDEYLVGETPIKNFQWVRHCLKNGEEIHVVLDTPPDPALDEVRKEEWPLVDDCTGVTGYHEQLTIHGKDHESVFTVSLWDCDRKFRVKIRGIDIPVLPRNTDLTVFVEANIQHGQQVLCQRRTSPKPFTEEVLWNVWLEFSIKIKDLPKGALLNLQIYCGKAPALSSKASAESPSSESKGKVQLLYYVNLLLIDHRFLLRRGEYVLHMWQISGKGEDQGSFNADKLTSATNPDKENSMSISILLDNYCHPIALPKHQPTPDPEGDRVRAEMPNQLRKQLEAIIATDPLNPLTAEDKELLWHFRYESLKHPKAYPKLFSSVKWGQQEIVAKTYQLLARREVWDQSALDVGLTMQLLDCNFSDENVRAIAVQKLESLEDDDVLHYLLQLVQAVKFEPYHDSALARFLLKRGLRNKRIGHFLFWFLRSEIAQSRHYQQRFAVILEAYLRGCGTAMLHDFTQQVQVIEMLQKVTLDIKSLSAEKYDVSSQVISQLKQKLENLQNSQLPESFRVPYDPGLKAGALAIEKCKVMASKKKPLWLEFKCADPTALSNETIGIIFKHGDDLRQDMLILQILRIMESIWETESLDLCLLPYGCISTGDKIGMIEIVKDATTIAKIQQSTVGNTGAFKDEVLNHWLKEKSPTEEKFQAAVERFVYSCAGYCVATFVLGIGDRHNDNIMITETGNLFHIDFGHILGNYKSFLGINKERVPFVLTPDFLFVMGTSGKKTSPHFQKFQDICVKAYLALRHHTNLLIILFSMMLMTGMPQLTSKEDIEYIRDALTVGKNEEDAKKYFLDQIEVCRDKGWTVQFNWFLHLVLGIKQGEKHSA

[15] = target: 97 kinases (kinase named in endpoint) (Homo sapiens, UniProt Q02763); assay: Eurofins KINOMEscan profiling, 97 kinases; conditions: read-out: % Ctrl, TIE2
Sequence of 97 kinases (kinase named in endpoint) (Homo sapiens, UniProt Q02763) (Q02763 23-1124): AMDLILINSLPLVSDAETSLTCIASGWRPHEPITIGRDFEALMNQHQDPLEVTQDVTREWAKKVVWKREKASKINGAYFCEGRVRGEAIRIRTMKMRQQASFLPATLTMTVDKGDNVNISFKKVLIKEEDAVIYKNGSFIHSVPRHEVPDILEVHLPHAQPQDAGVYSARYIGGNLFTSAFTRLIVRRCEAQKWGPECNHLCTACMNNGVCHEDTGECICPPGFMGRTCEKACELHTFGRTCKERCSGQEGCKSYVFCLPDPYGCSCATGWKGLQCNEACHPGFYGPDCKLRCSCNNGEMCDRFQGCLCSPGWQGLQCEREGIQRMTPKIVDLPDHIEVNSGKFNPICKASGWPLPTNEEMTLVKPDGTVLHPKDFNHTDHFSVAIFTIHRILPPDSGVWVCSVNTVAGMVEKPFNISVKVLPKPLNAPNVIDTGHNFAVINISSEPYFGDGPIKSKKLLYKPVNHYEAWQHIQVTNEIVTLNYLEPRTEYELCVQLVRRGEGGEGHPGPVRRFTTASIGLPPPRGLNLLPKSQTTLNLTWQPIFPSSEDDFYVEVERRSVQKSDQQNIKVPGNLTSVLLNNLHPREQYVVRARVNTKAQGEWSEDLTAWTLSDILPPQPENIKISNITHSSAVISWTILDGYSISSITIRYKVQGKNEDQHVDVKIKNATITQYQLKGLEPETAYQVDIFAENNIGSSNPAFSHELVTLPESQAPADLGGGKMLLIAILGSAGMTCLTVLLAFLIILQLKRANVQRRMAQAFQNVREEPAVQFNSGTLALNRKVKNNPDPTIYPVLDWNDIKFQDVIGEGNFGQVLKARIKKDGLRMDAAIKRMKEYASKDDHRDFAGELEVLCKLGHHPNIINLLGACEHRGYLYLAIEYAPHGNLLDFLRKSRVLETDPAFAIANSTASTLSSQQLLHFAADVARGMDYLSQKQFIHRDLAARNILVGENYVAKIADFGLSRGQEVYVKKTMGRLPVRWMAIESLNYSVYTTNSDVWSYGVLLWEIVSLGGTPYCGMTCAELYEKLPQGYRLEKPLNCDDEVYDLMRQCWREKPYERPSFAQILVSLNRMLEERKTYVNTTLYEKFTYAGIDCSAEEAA

[16] = target: 97 kinases (kinase named in endpoint) (Homo sapiens, UniProt Q05397); assay: Eurofins KINOMEscan profiling, 97 kinases; conditions: read-out: % Ctrl, FAK
Sequence of 97 kinases (kinase named in endpoint) (Homo sapiens, UniProt Q05397) (Q05397 whole entry): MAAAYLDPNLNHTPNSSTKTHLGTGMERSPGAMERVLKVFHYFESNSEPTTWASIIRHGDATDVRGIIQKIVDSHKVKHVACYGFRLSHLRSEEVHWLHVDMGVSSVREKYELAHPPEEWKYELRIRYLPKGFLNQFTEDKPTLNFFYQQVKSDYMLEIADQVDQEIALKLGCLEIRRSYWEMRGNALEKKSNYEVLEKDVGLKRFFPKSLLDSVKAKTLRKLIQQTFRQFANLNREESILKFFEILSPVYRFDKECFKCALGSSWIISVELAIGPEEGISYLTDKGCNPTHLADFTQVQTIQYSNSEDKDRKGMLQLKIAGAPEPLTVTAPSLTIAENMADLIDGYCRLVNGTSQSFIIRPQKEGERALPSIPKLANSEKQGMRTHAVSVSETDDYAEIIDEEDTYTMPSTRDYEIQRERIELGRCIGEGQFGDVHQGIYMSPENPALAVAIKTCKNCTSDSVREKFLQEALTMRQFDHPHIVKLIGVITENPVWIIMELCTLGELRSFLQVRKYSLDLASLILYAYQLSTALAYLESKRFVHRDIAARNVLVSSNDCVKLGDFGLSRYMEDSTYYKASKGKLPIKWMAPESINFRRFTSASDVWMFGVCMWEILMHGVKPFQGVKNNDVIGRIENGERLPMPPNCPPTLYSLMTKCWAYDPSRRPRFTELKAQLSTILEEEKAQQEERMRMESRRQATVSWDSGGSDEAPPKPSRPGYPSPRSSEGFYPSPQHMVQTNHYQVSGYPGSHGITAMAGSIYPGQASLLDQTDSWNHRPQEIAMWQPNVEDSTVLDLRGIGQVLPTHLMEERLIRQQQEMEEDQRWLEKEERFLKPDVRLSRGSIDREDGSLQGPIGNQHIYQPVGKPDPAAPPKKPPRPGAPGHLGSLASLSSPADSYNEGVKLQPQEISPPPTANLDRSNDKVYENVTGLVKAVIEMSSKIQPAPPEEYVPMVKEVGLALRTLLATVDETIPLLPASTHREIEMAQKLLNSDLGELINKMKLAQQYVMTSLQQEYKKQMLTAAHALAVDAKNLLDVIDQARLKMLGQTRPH

[17] = target: 97 kinases (kinase named in endpoint) (Homo sapiens, UniProt Q9UM73); assay: Eurofins KINOMEscan profiling, 97 kinases; conditions: read-out: % Ctrl, ALK
[18] = Homo sapiens, average of n >= 3, read-out: cell viability IC50

Row | Structure (SMILES) | IC50 [1] [µM] | IC50 [2] [µM] | IC50 [3] [µM] | IC50 [4] [µM] | IC50 [5] [µM] | IC50 [6] [µM] | remaining binding at 1 µM [9] [%] | remaining binding at 1 µM [10] [%] | remaining binding at 1 µM [11] [%] | remaining binding at 1 µM [12] [%] | remaining binding at 1 µM [13] [%] | remaining binding at 1 µM [14] [%] | remaining binding at 1 µM [15] [%] | remaining binding at 1 µM [16] [%] | remaining binding at 1 µM [17] [%] | induction of apoptosis, time-course [7] | further results
1 | CCCCCCCCCCCCCC(=O)N[C@@H](CC(N)=O)C(=O)N[C@@H](CC(C)C)C(=O)N[C@]1(C)CCCCCCC=CCCC[C@@](C)(C(=O)N[C@@H](CCC(=O)O)C(=O)N[C@@H](CC(C)C)C(=O)N[C@@H](CC(N)=O)C(N)=O)NC(=O)[C@H](CC(C)C)NC(=O)[C@H](CC(C)C)NC(=O)[C@H](CCCNC(=N)N)NC(=O)[C@H](CC(=O)O)NC(=O)[C@H](CC(C)C)NC(=O)[C@H](CCC(=O)O)NC1=O [compound 2012] | > 200 | > 200 | > 200 | 9.79 | 2.36 | 4.42 | 98 | 100 | 100 | 100 | 93 | 99 | 98 | 96 | 100 | – | EC50 ([7]; 96 h): 8.3 µM; IC50 ([8]; 48 h treatment): 1.8 µM
2 | CCCCCCCCCCCCCC(=O)N[C@@H](CC(N)=O)C(=O)N[C@@H](CC(C)C)C(=O)N[C@]1(C)CCCCCCC=CCCC[C@@](C)(C(=O)N[C@@H](CCC(=O)O)C(=O)N[C@@H](CCC(=O)O)C(=O)N[C@@H](CC(N)=O)C(N)=O)NC(=O)[C@H](CC(C)C)NC(=O)[C@H](CC(C)C)NC(=O)[C@H](CCCNC(=N)N)NC(=O)[C@H](CC(=O)O)NC(=O)[C@H](CCC(=O)O)NC(=O)[C@H](CCC(=O)O)NC1=O [compound 2020] (Myristoyl-NL[R8]EEDRLL[S5]EEN-NH2; staple 3-10) | > 200 | > 200 | > 200 | > 200 | > 200 | > 200 | – | – | – | – | – | – | – | – | – | no effect at any timepoint | invasion IC50 ([8]; 48 h treatment): no effect
3 | CNC(=O)c1ccc(Nc2ncc(C(F)(F)F)c(NCc3nccnc3N(C)S(C)(=O)=O)n2)cc1 [defactinib] | – | – | – | – | – | – | 99 | 100 | 4.9 | 88 | 1.1 | 85 | 41 | 0.1 | 32 | no effect at any timepoint | IC50 ([1]; Homo sapiens, HepG2, average of n >= 3, read-out: cell viability IC50): 67 µM; IC50 ([2]; Homo sapiens, LX-2, average of n >= 3, read-out: cell viability IC50): 2.19 µM; IC50 [3, 18]: > 200 µM; IC50 [4, 18]: 18.9 µM; IC50 ([5]; Homo sapiens, SK-MEL-147, average of n >= 3, read-out: cell viability IC50): 2.84 µM; IC50 [6, 18]: 21.2 µM; Annexin V apoptosis EC50 ([7]; 96 h): did not exhibit a dose-dependent effect; percentage of invaded cells ([8]; 2.5 µM): 0%
